The text below walks through data of US4907606A, “Tobacco compositions, method and device for releasing essentially pure nicotine” (AB Leo, priority 1984, dated 1990).

A short description of this data set: Bioavailability: blood plasma nicotine levels after inhalation of air from the glass columns. The data set is classed as in vivo. To be noted: human, inhaled or intranasal, test persons abstained from nicotine for 12 h, read-out: Plasma nicotine, peak value. On the procedure: Untreated tobacco was used as reference.
The bioavailability of nicotine, i.e. the blood plasma nicotine levels, after inhalation of air from the glass columns prepared as described above at 65° C. and 75° C., respectively was also investigated. The test persons had abstained from smoking or having nicotine in any other way for 12 h before the test.

Read-outs that look alike come from different tables or passages of the source.

Regarding `CN1CCCC1c1cccnc1` (centres unmarked) [nicotine], the Cmax is, setting by setting: (column at 65 °C) 5 ng/mL; (column at 75 °C) 10 to 15 ng/mL.
